Laboratory results published in patent US3975389A, “Caffeine derivatives” (priority 1973, dated 1976).

What was measured:
[1] = acute toxicity, mouse; conditions: in vivo
Text: (§1) o) compound dissolved in physiological salt solution.
(§2) x) compound suspended in 5% arabic gum.

[2] = acute toxicity, guinea-pig; conditions: in vivo
Text: as §1, §2

[3] = system: bronchial spasm caused by a broncho-constrictor aerosol of histamine hydrochloride; assay: broncholitic activity in the awake guinea-pig: percentage protection against bronchial spasm caused by histamine hydrochloride aerosol; format: in vivo
[4] = survival / late mortality of guinea-pigs treated in the broncholitic activity test (48 hours, oral route); conditions: guinea pig, in vivo, po
[5] = strengthening of the andiogenic convulsions test in the mouse; format: in vivo; conditions: in vivo, ip, intraperitoneal dose of 50 mg/kg, read-out: death of treated animals
Text: (§3) The undesired action on the central nervous system has been evaluated with the strengthening of the andiogenic convulsions test in the mouse (Werboff et coll., Amer. J. Physiol., 201, 830, 1961). As is well known, the theophilline derivatives potentiate the effects of the acoustic stimulus (motory agitation, clonic and tonic convulsions which may lead to the death of the animals).

[6] = system: effects of the acoustic stimulus (motory agitation, clonic and tonic convulsions); assay: as above; format: in vivo; conditions: intraperitoneal dose of 50 mg/kg
Text: as §3

[7] = bronchial asthma therapy; known for the comparison compound; cited from earlier work
[8] = system: guinea-pigs; assay: survival / late mortality of guinea-pigs treated in the broncholitic activity test (48 hours, oral route); conditions: in words; tardy mortality
[9] = ip, dissolved in physiological salt solution
[10] = po, per os, suspended in 5% arabic gum
[11] = i.p. route, 25 mg/kg, after 30' of the administration
[12] = i.p. route, 50 mg/kg, after 30' of the administration
[13] = i.p. route, 75 mg/kg, after 30' of the administration
[14] = oral route, 75 mg/kg, after 60' of the administration
[15] = oral route, 150 mg/kg, after 60' of the administration
[16] = oral route, 300 mg/kg, after 60' of the administration

Compound | LD50 [1, 9] [mg/kg] | LD50 [1, 10] [mg/kg] | Protection percentage from the spasm caused by histamine [3, 11] [%] | Protection percentage from the spasm caused by histamine [3, 12] [%] | Protection percentage from the spasm caused by histamine [3, 13] [%] | Protection percentage from the spasm caused by histamine [3, 14] [%] | Protection percentage from the spasm caused by histamine [3, 15] [%] | Protection percentage from the spasm caused by histamine [3, 16] [%] | survival at 48 h ([4]; 75 mg/kg) [%] | survival at 48 h ([4]; 150 mg/kg) [%] | survival at 48 h ([4]; 300 mg/kg) [%] | further results
Cc1ccnc(C)c1C(=O)OC(C)c1nc2c(c(=O)n(C)c(=O)n2C)n1C (stereo not drawn) [8-[α-(2,4-dimethylnicotinoyloxy)-ethyl]-caffeine] | 320 | 500 |  |  |  |  |  |  |  |  |  | 
CC(OC(=O)c1cccnc1)c1nc2c(c(=O)n(C)c(=O)n2C)n1C (stereo not drawn) [8-[α-(nicotinoyloxy)-ethyl]-caffeine] | 445 | 520 |  |  |  |  |  |  |  |  |  | LD50 [2, 9]: 220 mg/kg; LD50 [2, 10]: 440 mg/kg
CC(OC(=O)c1cccnc1)c1nc2c(c(=O)n(C)c(=O)n2C)n1C.Cl (stereo not drawn) [386/770, 8-[α-(nicotinoyloxy)-ethyl]-caffeine monohydrochloride] |  |  | 35 | 38 | 94 | 13 | 26 | 65 | 100 | 100 | 100 | 
Cc1ccnc(C)c1C(=O)OC(C)c1nc2c(c(=O)n(C)c(=O)n2C)n1C.Cl (stereo not drawn) [386/986, 8-[α-(2,4-dimethylnicotinoyloxy)-ethyl]-caffeine monohydrochloride] |  |  | 22 | 39 | 85 | 39 | 54 | 80 | 100 | 100 | 100 | 
Cn1c(=O)c2[nH]cnc2n(C)c1=O [Aminophilline, reference compound] |  |  |  | 24 | 80 | 31 | 95 |  |  |  |  | Protection percentage from the spasm caused by histamine ([3]; i.p. route, 100 mg/kg, after 30' of the administration): 100%; Protection percentage from the spasm caused by histamine ([3]; i.p. route, 150 mg/kg, after 30' of the administration): 100%; Protection percentage from the spasm caused by histamine ([3]; oral route, 50 mg/kg, after 60' of the administration): 14%; Protection percentage from the spasm caused by histamine ([3]; oral route, 100 mg/kg, after 60' of the administration): 92%; mortality [5]: 50%; strengthening of the effects of the acoustic stimulus [6]: remarkable strengthening of the effects of the acoustic stimulus; undesired secondary effects [7]: excitement caused by caffeine and irritation of the gastric mucous membrane; mortality of guinea-pigs subjected to the broncholitic activity test [8]: tardy high mortality
